Experimental data from US20240261294A1, “METHOD FOR TREATING IDH INHIBITOR-RESISTANT SUBJECTS” (Eli Lilly and Company, priority 2021, published 2024).
Residue numbers refer to the chain shown, from its start. Where two headings read alike, the source gives them in different places.

How the values were obtained:
IDH2 R140Q_I319M cis = target: T1, IDH2 R140Q_I319M cis (Homo sapiens, UniProt P48735, I319M/R140Q); experiment: Inhibition of 2-HG production in IDH2 mutant U-87 MG cells; format: cell-based
T1 construct: expressed in transfected cells; host or cells: U-87 MG
T1 sequence (P48735 40-452 R140Q/I319M): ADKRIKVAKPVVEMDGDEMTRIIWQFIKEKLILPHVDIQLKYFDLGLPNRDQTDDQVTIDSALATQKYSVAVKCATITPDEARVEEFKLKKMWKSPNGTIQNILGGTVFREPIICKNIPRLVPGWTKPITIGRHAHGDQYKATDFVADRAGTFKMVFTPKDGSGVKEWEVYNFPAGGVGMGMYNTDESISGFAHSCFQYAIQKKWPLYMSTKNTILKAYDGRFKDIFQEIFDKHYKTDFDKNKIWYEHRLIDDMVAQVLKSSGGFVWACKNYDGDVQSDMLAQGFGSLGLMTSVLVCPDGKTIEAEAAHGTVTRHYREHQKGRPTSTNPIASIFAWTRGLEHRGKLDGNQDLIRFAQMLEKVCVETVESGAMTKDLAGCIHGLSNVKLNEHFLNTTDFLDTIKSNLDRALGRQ

IDH2 R172K_G260A cis = target: T2, IDH2 R172K_G260A cis (Homo sapiens, UniProt P48735, G260A/R172K); experiment: as above; format: cell-based; conditions: 16 hours incubation, 50K cells/well, 100 μl media/well, read-out: Relative IC50 (nM) Mean, inhibition of 2-HG production
T2 construct: expressed in transfected cells; host or cells: U-87 MG
T2 sequence (P48735 40-452 R172K/G260A): T1 sequence (P48735 40-452 R140Q/I319M) with Q101R, R133K, G221A, M280I

Compound `C=CC(=O)N1CCN([C@@H](CC2CC2)c2ccc([C@H](C)Nc3ncc4c(n3)N(CC)C(=O)OC4)cc2)CC1` [Compound A, 7-[[(1S)-1-[4-[(1S)-2-cyclopropyl-1-(4-prop-2-enoylpiperazin-1-yl)ethyl]phenyl]ethyl]amino]-1-ethyl-4H-pyrimido[4,5-d][1,3]oxazin-2-one] has an IC50 (IDH2 R140Q_I319M cis; 16 hours incubation, 50K cells/well, 100 μl media/well, read-out: Relative IC50 (nM) Mean, inhibition of 2-HG production) of 29 nM, an IC50 (IDH2 R140Q_I319M cis; 72 hours incubation, 12.5K cells/well, 150 μl media/well, read-out: IC50, inhibition of 2-HG production) of 30.4 nM and an IC50 (IDH2 R172K_G260A cis) of 13 nM.
